From US10501479B2, “Benzenesulfonyl-asymmetric ureas and medical uses thereof” (HELSINN HEALTHCARE SA, priority 2016, dated 2019) come the findings set out here.

Some results are limits rather than exact numbers.

The target of the first assay is T1, GHSR-1a (HEK293/GHSR1a cell line) (Homo sapiens, UniProt Q92847).
T1 construct: expressed in transfected cells; host or cells: HEK293/GHSR1a cell line
T1 sequence (Q92847 whole entry): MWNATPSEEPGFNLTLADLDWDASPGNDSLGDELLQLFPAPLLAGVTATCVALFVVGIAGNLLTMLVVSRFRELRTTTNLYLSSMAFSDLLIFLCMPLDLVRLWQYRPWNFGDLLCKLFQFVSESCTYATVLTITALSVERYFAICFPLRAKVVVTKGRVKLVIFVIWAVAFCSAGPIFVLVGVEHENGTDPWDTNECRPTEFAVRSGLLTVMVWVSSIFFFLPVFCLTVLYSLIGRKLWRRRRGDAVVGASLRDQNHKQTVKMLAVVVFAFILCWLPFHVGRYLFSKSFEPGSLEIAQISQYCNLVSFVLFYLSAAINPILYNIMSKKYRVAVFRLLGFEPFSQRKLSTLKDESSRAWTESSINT
Description: Ghrelin antagonist potency (IC50) with calcium FLIPR assay, ghrelin 10 nM. The assay is classed as cell-based. The conditions noted are these: HEK293/GHSR1a, ghrelin 10 nM, read-out: Activity IC50 (ghrelin antagonist potency). The method, then:
Evaluation of Ghrelin Agonist (EC50) and Antagonist Potency (IC50) with Calcium FLIPR Assay:
The intracellular calcium assay was carried out in a 384-well format FLIPR™ (Molecular Device) HEK293/GHSR1a cell line. Cells were seeded 24 hr prior to the experiments at an optimal density per well. Preincubation with selected calcium dye lasted for 30-60 min at room temperature or 37° C. Test compounds, dissolved in DMSO, were added at the appropriate time and incubated for 15 min followed by the addition of ghrelin with FlexStation or FLIPR. Relative fluorescence was monitored by the FLIPR™ Molecular Device. EC50 and IC50 values were estimated from dose-response data using GraphPad Prism software. To check for GHSR-1a agonism, the compound was added at t=20 sec. and the calcium response was followed for 2 minutes. To check for GHSR-1a antagonism, the compound and Ghrelin (10 nM) were added to the cells at t=20 sec. and the calcium response was measured for 2 minutes. The potency of the antagonist was calculated by its ability to reduce the ghrelin response. Dose-response curves were made for relevant antagonists.
For `CCc1ccc(Cl)c(C(=O)NC(=O)Nc2ccc(S(=O)(=O)Nc3ccc(CC(C)(C)N)cc3)cc2)c1` [H1254, N-((4-(N-(4-(2-amino-2-methylpropyl)phenyl)sulfamoyl)phenyl)carbamoyl)-2-chloro-5-ethylbenzamide], the IC50 came out at 0.0172 µM.

Take `COc1ccc(C(C)NC(=O)Nc2ccc3c(c2)CC(c2ccc4c(c2)CNC4)S3(=O)=O)cc1` (stereo not shown) [H1297, 1-(2-(isoindolin-5-yl)-1,1-dioxido-2,3-dihydrobenzo[b]thiophen-5-yl)-3-(1-(4-methoxyphenyl)ethyl)urea]: the IC50 is 0.0231 µM.

As for `C[C@H](NC(=O)Nc1ccc2c(c1)C=C(c1ccc3c(c1)CNC3)S2(=O)=O)c1ccccc1` [H1270, (S)-1-(2-(isoindolin-5-yl)-1,1-dioxidobenzo[b]thiophen-5-yl)-3-(1-phenylethyl)urea], the IC50 was determined as 0.0251 µM.

Staying with this assay, now noted: ghrelin antagonist potency, read-out: IC50 (Activity).
In the case of `CN(C)C(C)(C)Cc1ccc(CS(=O)(=O)c2ccc(NC(=O)NCc3cccc(Cl)c3Cl)cc2)cc1` [H0981, 1-(2,3-dichlorobenzyl)-3-(4-((4-(2-(dimethylamino)-2-methylpropyl)benzyl)sulfonyl)phenyl)urea], the IC50 worked out at 0.0095 µM.

For the compound `C[C@H](NC(=O)Nc1ccc(S(=O)(=O)Cc2ccc(CO)cc2)cc1)c1ccccc1` [H1222, (S)-1-(4-((4-(hydroxymethyl)benzyl)sulfonyl)phenyl)-3-(1-phenylethyl)urea], the IC50 is 3.16 µM.

For the compound `C[C@H](NC(=O)N(O)c1ccc(S(=O)(=O)Nc2ccc3c(c2)CNC3)cc1)c1cccc(Cl)c1Cl` [H1188, (S)-4-(3-(1-(2,3-dichlorophenyl)ethyl)-1-hydroxyureido)-N-(isoindolin-5-yl)benzenesulfonamide], the IC50 is 0.539 µM.

Take `O=C(NCc1cccc(Cl)c1Cl)Nc1ccc(S(=O)(=O)Cc2ccc3c(c2)CCN3)cc1` [H1048, 1-(2,3-dichlorobenzyl)-3-(4-((indolin-5-ylmethyl)sulfonyl)phenyl)urea]: the IC50 amounted to 16.8 µM.

With `COc1ccc([C@H](C)NC(=O)Nc2ccc(S(=O)(=O)Nc3ccc4[nH]ccc4c3)cc2)c(Cl)c1Cl` [H0990, (S)-4-(3-(1-(2,3-dichloro-4-methoxyphenyl)ethyl)ureido)-N-(1H-indol-5-yl) benzenesulfonamide], the IC50 was determined as 0.823 µM.

Consider `COC(=O)c1ccc(CS(=O)(=O)c2ccc(NC(=O)N[C@@H](C)c3cccc(Cl)c3Cl)cc2)cc1` [H1058, methyl (S)-4-(((4-(3-(1-(2,3-dichlorophenyl)ethyl)ureido)phenyl)sulfonyl)methyl)benzoate], for which the IC50 was 20 µM.

For the compound `C[C@H](NC(=O)Nc1ccc(S(=O)(=O)CC2CCN(C)CC2)cc1)c1ccccc1` [H1238, (S)-1-(4-(((1-methylpiperidin-4-yl)methyl)sulfonyl)phenyl)-3-(1-phenylethyl)urea], the IC50 is above 30 µM.

Turning to `CC(NC(=O)Nc1ccc(S(=O)(=O)C(C)(C)c2ccc3c(c2)CN(Cc2ccccc2)C3)cc1)c1ccccc1` (stereo not shown) [H1231, 1-(4-((2-(2-benzylisoindolin-5-yl)propan-2-yl)sulfonyl)phenyl)-3-(1-phenylethyl)urea], the IC50 was above 30 µM.

On to `CC(NC(=O)N(C)c1ccc(S(=O)(=O)Cc2ccc3c(c2)CNC3)cc1)c1ccccc1` (stereo not shown) [H1213, 1-(4-((isoindolin-5-ylmethyl)sulfonyl)phenyl)-1-methyl-3-(1-phenylethyl)urea], for which the IC50 was determined as 4.35 µM.

`C[C@H](NC(=O)Nc1ccc(S(=O)(=O)CCN2CCOCC2)cc1)c1cccc(Cl)c1Cl` [H1096, (S)-1-(1-(2,3-dichlorophenyl)ethyl)-3-(4-((2-morpholinoethyl)sulfonyl)phenyl)urea]: the IC50 was at least 30 µM.

As to `COC(=O)Cc1ccc(NS(=O)(=O)c2ccc(NC(=O)N[C@@H](C)c3cccc(Cl)c3Cl)cc2)cc1` [H1075, methyl (S)-2-(4-((4-(3-(1-(2,3-dichlorophenyl)ethyl)ureido)phenyl)sulfonamido)phenyl)acetate], the IC50 was found to be 3.02 µM.

For the compound `COC(=O)c1cccc(CS(=O)(=O)c2ccc(NC(=O)N[C@@H](C)c3cccc(Cl)c3Cl)cc2)c1` [H1087, methyl (S)-3-(((4-(3-(1-(2,3-dichlorophenyl)ethyl)ureido)phenyl)sulfonyl)methyl)benzoate], the IC50 is 8.18 µM.

As for `Cc1ccc(CS(=O)(=O)c2ccc(NC(=O)N[C@@H](C)c3ccc(-c4cnccn4)c(Cl)c3Cl)cc2)cc1` [H0963, (S)-1-(1-(2,3-dichloro-4-(pyrazin-2-yl)phenyl)ethyl)-3-(4-((4-methylbenzyl)sulfonyl)phenyl)urea], the IC50 is above 30 µM.

Turning to `CC(=O)N(C)S(=O)(=O)c1ccc(NC(=O)N[C@@H](C)c2ccc(-c3cnccn3)c(Cl)c2Cl)cc1` [H0954, (S)-N-((4-(3-(1-(2,3-dichloro-4-(pyrazin-2-yl)phenyl)ethyl)ureido)phenyl)sulfonyl)-N-methylacetamide], the IC50 was above 30 µM.

On to `COc1ccc([C@H](C)NC(=O)Nc2ccc(S(=O)(=O)Cc3ccc4c(c3)CCN(S(C)(=O)=O)C4)cc2)c(Cl)c1Cl` [H1026, (S)-1-(1-(2,3-dichloro-4-methoxyphenyl)ethyl)-3-(4-(((2-(methylsulfonyl)-1,2,3,4-tetrahydroisoquinolin-6-yl)methyl)sulfonyl)phenyl)urea], for which the concentration for half-maximal inhibition (IC50) worked out at 14.9 µM.

For `O=C(NCc1cccc(Cl)c1Cl)Nc1ccc(S(=O)(=O)Cc2ccc3c(c2)NCC3)cc1` [H1046, 1-(2,3-dichlorobenzyl)-3-(4-((indolin-6-ylmethyl)sulfonyl)phenyl)urea], the IC50 came to 1.99 µM.

Turning to `COc1cccc(CS(=O)(=O)c2ccc(NC(=O)N[C@@H](C)c3cccc(Cl)c3Cl)cc2)c1` [H1082, (S)-1-(1-(2,3-dichlorophenyl)ethyl)-3-(4-((3-methoxybenzyl)sulfonyl)phenyl)urea], the IC50 was above 30 µM.

Turning to `C[C@H](NC(=O)Nc1ccc(S(=O)(=O)Nc2ccc3c(c2)CCCN3)cc1)c1cccc(Cl)c1Cl` [H1003, (S)-4-(3-(1-(2,3-dichlorophenyl)ethyl)ureido)-N-(1,2,3,4-tetrahydroquinolin-6-yl)benzenesulfonamide], the IC50 came to 2.02 µM.

As to `CCOc1ccc(Cl)c(C(=O)NC(=O)Nc2ccc(S(=O)(=O)Nc3ccc4c(c3)CNC4)cc2)c1` [H1252, 2-chloro-5-ethoxy-N-((4-(N-(isoindolin-5-yl)sulfamoyl)phenyl)carbamoyl) benzamide], the IC50 was determined as 0.44 µM.

As to `C[C@H](NC(=O)Nc1ccc(S(=O)(=O)Nc2ccc(N)nc2)cc1)c1cccc(Cl)c1Cl` [H1126, (S)-N-(6-aminopyridin-3-yl)-4-(3-(1-(2,3-dichlorophenyl)ethyl)ureido) benzenesulfonamide], the IC50 is 0.183 µM.

For the compound `C[C@H](NC(=O)Nc1ccc(S(=O)(=O)Cc2cccc(O)c2)cc1)c1cccc(Cl)c1Cl` [H1084, (S)-1-(1-(2,3-dichlorophenyl)ethyl)-3-(4-((3-hydroxybenzyl)sulfonyl)phenyl)urea], the IC50 is 3.5 µM.

With `O=C(NC(=O)c1cc(N2CCOCC2)ccc1Cl)Nc1ccc(S(=O)(=O)Nc2ccc3c(c2)CNC3)cc1` [H1250, 2-chloro-N-((4-((isoindolin-5-yl)sulfamoyl)phenyl)carbamoyl)-5-morpholinobenzamide], the half-maximal inhibitory concentration (IC50) is 1.37 µM.

As for `COc1ccc(C(C)NC(=O)Nc2ccc(S(=O)(=O)Nc3ccc(CO)cc3)cc2)c2ccccc12` (stereo not shown) [H1145, N-(4-(hydroxymethyl)phenyl)-4-(3-(1-(4-methoxynaphthalen-1-yl)ethyl)ureido) benzenesulfonamide], the IC50 was at least 30 µM.

Take `CCOc1ccc(Cl)c(C(=O)NC(=O)Nc2ccc(S(=O)(=O)Cc3ccc4c(c3)CNC4)cc2)c1` [H1251, 2-chloro-5-ethoxy-N-((4-((isoindolin-5-ylmethyl)sulfonyl)phenyl)carbamoyl)benzamide]: the IC50 turned out to be 0.0896 µM.

For the compound `O=C(NCc1ccccc1)Nc1ccc(S(=O)(=O)Cc2ccc(CO)cc2)cc1` [H1131, 1-benzyl-3-(4-((4-(hydroxymethyl)benzyl)sulfonyl)phenyl)urea], the IC50 is at least 30 µM.

Turning to `COc1ccc(C(C)(C)NC(=O)Nc2ccc(S(=O)(=O)Nc3ccc(CC(C)(C)N)cc3)cc2)c(Cl)c1Cl` [H0975, N-(4-(2-amino-2-methylpropyl)phenyl)-4-(3-(2-(2,3-dichloro-4-methoxyphenyl)propan-2-yl)ureido)benzenesulfonamide], the IC50 turned out to be 0.0095 µM.

In the case of `CCc1ccc(Cl)c(C(=O)NC(=O)Nc2ccc(S(=O)(=O)Cc3ccc4c(c3)CNC4)cc2)c1` [H1248, 2-chloro-5-ethyl-N-((4-((isoindolin-5-ylmethyl)sulfonyl)phenyl)carbamoyl)benzamide], the IC50 stood at 0.283 µM.

As for `O=C(NCc1cscn1)Nc1ccc(S(=O)(=O)Cc2ccc3c(c2)CNC3)cc1` [H1216, 1-(4-((isoindolin-5-ylmethyl)sulfonyl)phenyl)-3-(thiazol-4-ylmethyl)urea], the IC50 came out at 8.45 µM.

As to `C[C@H](NC(=O)Nc1ccc(S(=O)(=O)NC2CCN(C)CC2)cc1)c1ccccc1` [H1239, (S)-N-(1-methylpiperidin-4-yl)-4-(3-(1-phenylethyl)ureido) benzenesulfonamide], the IC50 is above 30 µM.

As for `COc1ccc([C@H](C)NC(=O)Nc2ccc(S(=O)(=O)Nc3ccccc3)cc2)c(Cl)c1Cl` [H0950, (S)-4-(3-(1-(2,3-dichloro-4-methoxyphenyl)ethyl)ureido)-N-phenylbenzenesulfonamide], the IC50 was determined as 20.8 µM.

In the case of `C[C@H](NC(=O)Nc1ccc(S(=O)(=O)C2CCN(C)CC2)cc1)c1ccccc1` [H1237, (S)-1-(4-((1-methylpiperidin-4-yl)sulfonyl)phenyl)-3-(1-phenylethyl)urea], the IC50 was above 30 µM.

As usually defined, the IC50 is the midpoint of a concentration-inhibition curve.
